Assay results taken from EP2326328B1, “USE OF DIHYDRALAZINE FOR THE TREATMENT OF DISEASES RELATED TO ELEVATED SEMICARBAZIDE SENSITIVE AMINE-OXIDASE (SSAO) ACTIVITY” (Semmelweis Egyetem, priority 2008, dated 2010).

Biological target: T1, SSAO (Homo sapiens, UniProt Q16853)
T1 construct: from tissue; host or cells: human serum
T1 sequence (Q16853 29-763 limits assumed): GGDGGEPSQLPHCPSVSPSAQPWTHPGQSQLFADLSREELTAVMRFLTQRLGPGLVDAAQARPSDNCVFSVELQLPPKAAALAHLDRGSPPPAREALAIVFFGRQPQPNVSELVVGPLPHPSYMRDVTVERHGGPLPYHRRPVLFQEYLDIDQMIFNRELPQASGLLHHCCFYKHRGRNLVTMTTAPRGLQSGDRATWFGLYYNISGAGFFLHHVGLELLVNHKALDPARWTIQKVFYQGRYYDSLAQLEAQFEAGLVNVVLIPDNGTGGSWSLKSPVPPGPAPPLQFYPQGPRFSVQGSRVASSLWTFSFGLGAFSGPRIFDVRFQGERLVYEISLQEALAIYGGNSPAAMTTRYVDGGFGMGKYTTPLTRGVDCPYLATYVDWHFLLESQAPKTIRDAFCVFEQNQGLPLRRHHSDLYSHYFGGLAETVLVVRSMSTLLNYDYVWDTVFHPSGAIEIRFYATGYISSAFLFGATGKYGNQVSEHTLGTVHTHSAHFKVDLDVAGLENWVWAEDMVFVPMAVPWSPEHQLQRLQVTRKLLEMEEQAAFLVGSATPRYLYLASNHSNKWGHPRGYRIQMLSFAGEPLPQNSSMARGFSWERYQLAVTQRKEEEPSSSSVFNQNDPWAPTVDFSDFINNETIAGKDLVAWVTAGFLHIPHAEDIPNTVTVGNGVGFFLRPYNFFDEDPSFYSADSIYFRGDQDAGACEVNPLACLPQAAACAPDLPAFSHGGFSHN
Assay: serum SSAO activity of treated type 2 diabetic patients
Type: in vivo
Details: for SSAO activity (pmol/mg protein/hour): serum, oral 14.5 mg dihydralazine sulphate twice daily
Procedure: A radiochemical procedure (Yu P.H., Zuo D.M., Biochem. Pharmacol., 1992, 43, 307-312) was adapted for determining SSAO activities in the human serum. It is based on the determination of the quantity of ^14C-benzaldehyde formed by the enzyme reaction of ^14C-benzylamine.
The preparations containing the serum and the dihydralazine enzyme inhibitor were pre-incubated at room temperature for 20 min. The enzyme reaction was started with ^14C-benzylamine substrate (- 200000 dpm/tube). The samples obtained accordingly were incubated at 37°C for 40 min, then the reaction was stopped by adding 200 µl 2M citric acid solution. In case of the 'blank' sample, citric acid solution was added before adding the substrate, therefore, in this case no enzyme reaction took place. The samples were extracted with 1000 µl 1:1 toluene - ethyl acetate mixture, by vortex method, then centrifuged (2500 g / 5 min). The enzyme activity was determined by liquid scintillation counting (600 µl supernatant + 5ml Aquasafe), using the formula below: ([dpm(sample)-dpm0ʹ] x 1.6 x 10 x 1.5)/(measured substrate activity dpm x mg protein) [formula] standing for: 1.6: extraction volume; 10: molar activity; 1.5: correction factor for the incubation time; dpm: disintegrations per minute (unit of radioactivity)
After giving their informed consent, patients participating in the study were treated for 56 days taking ½ tablet twice daily of a pharmaceutical composition containing 28.9 mg dihydralazine sulphate (i.e. the ½ tablet contained 14.5 mg dihydralazine sulphate).
Serum SSAO activity was determined from blood samples collected before starting the treatment, and at the 14., 28. and 56. day of the treatment. The blood samples were centrifuged and the supernatant was stored at - 80°C until the measurement of the enzyme activity. SSAO activity was determined applying the method described in the example above.

- serum SSAO activity (2 treated type 2 diabetic patients, oral 14.5 mg dihydralazine sulphate twice daily for 56 days): parallel decrease of serum SSAO activity
- SSAO activity (pmol/mg protein/hour) (1. patient, 14. day, before treatment 93.02): 62.42 pmol/mg protein/hour
- SSAO activity (pmol/mg protein/hour) (1. patient, 28. day, before treatment 93.02): 85.73 pmol/mg protein/hour
- SSAO activity (pmol/mg protein/hour) (1. patient, 56. day, before treatment 93.02): 82.41 pmol/mg protein/hour
- SSAO activity (pmol/mg protein/hour) (2. patient, 14. day, before treatment 167.56): 127.96 pmol/mg protein/hour
- SSAO activity (pmol/mg protein/hour) (2. patient, 28. day, before treatment 167.56): 186.36 pmol/mg protein/hour
- SSAO activity (pmol/mg protein/hour) (2. patient, 56. day, before treatment 167.56): 105.1 pmol/mg protein/hour
Structure (SMILES): NNc1nnc(NN)c2ccccc12 [dihydralazine]
